Source: US10329304B2, “Compounds and methods for inhibition of hedgehog signaling and phosphodiesterase” (Vanderbilt University, priority 2014, dated 2019)
Where two headings read alike, the source gives them in different places.

What was measured:
Gli1 transcription = assay: Sufu−/− mouse embryonic fibroblasts qRT-PCR; type: cell-based
From the text: (§1) In light of EGM1's ability to halt Hh transcriptional activity at a node downstream of the negative regulator Sufu, and thus also downstream of Smo, we sought to confirm mode of action retention with our most promising analogs. Therefore, we employed Sufu−/− mouse embryonic fibroblasts (MEF) that display constitutively active transcription of Hh target genes Gli1 and Ptch1 and monitored the ability of our optimized analogs to repress signaling via quantitative reverse transcription-PCR (qRT-PCR). […] We then evaluated improved analogs from multiple structural classes including those from Table 1 with cyclohexylthiophene cores as well as from Table 13 with structurally distinct core modifications.
(§2) Sufu^−/− cells were seeded into 12-well plates at a density of 100,000 cells/well in D10 FBS and incubated for 24 hours. Small molecule solutions were prepared by adding the desired amount of compound from 10 mM DMSO stock to D0.5 FBS. Negative control was prepared by adding an equi-volume amount of DMSO to D0.5 FBS as compared to small molecule treated conditions. Cell plating medium was aspirated and replaced with 1 mL of prepared small molecule-containing media, and plates were incubated for 24 hours before proceeding to RNA isolation.
(§3) Cells were washed 1× with 1× phosphate-buffered saline (PBS) then RNA was isolated using the Qiagen RNeasy Mini Kit (Qiagen, Germantown, Md., USA) according to the manufacturer's protocol, eluting RNA from the spin column with 30 μL of RNase-free water. RNA was placed on ice and immediately subjected to reverse transcription. Remaining RNA was stored at −80° C.
(§4) Reverse transcription polymerase chain reaction (RT-PCR) was performed with the Applied Biosystems High Capacity cDNA Reverse Transcription Kit (ThermoFisher Scientific, Waltham, Mass., USA) using an Eppendorf MasterCycler. Each 20 μL reaction contained 0.5 μg of total RNA, 2 μL of 10×RT Buffer, 0.8 μL of 25×dNTP Mix (100 mM), 2 μL of 10×RT Random Primers, 1 μL of MultiScribe® Reverse Transcriptase (50 U/μL), 1 μL of Recombinant RNasin® Ribonuclease Inhibitor (40 U/μL) (Promega, Madison, Wis., USA), and nuclease-free water. Reverse transcription was performed with the following program: 25° C. for 10 minutes, 37° C. for 120 minutes, and 85° C. for 5 minutes. The cDNA was subjected to quantitative real-time PCR (Q-PCR) or stored at −20° C.
(§5) Quantitative real-time PCR was performed on an Applied Biosystems 7900 HT Fast Real Time PCR System in 384-well format. Each cDNA sample was assayed in triplicate with both probe of interest and control probe. Master mixes for each probe were prepared corresponding to 10 μL of Applied Biosystems TaqMan Universal PCR Master Mix (ThermoFisher Scientific, Waltham, Mass., USA), 1 μL of primer, and nuclease-free water corresponding to a volume providing 20 μL reactions when loading an average of 50 ng of cDNA. Quantitative real-time PCR was run with the following thermal cycling protocol: 50° C. for 2 min., 95° C. for 10 min., and 40 cycles of 95° C. for 15 seconds, 60° C. for 1 min., then fluorescence reading. The following FAM probes were purchased from Life Technologies (Carlsbad, Calif., USA): mouse GAPDH, Mm99999915_g1; mouse Gli1, Mm00494646_g1; mouse Ptch1, Mm01306905_m1.
(§6) Quantitative real-time PCR data for Hh signaling inhibition was quantitated using the ΔΔCt method. Control probe values were subtracted from probe of interest values to arrive at the ΔCt value. The ΔCt value was transformed by 2-^ΔCt to arrive at the ΔΔCt value. All ΔΔCt values were divided by the average negative control ΔΔCt value to provide percent Hh signaling activity. Percent inhibition values were derived by calculating the inverse of percent activity. Data is reported as mean±standard error of the mean (SEM), representing at least two biological replicates, each quantitated in triplicate.

[1] = Lipophilic efficiency (LipE = pEC50 − cLogP) and cLogP
Method: Therefore, we prioritized phenotypic analog evaluation in the Gli-responsive luciferase reporter line TM3-Gli-Luc stimulated with 20 nM Smo agonist (SAG) while concurrently monitoring non-specific cellular toxicity. Additionally, lipophilic efficiency (LipE), a concurrent readout of a compound's potency (pEC50) and lipophilicity (cLogP) derived by subtracting the latter from the former, was utilized to optimize solubility properties (Table 12B), allowing for straightforward tracking of compounds with improvements in both parameters.

[2] = tested on: Hedgehog signaling (TM3-Gli-Luc); assay: TM3-Gli-Luc luciferase reporter assay stimulated with 20 nM SAG; type: cell-based
Method in brief: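 TM3-Gli-Luc cells on 0.1% gelatin in DMEM/F12 with 2.5% FBS, treated 48 h with compound plus 20 nM SAG. Steady-Glo luminescence normalized to CellTiter-Glo viability, DMSO-only (no SAG) background subtracted, percent of SAG control. EC50 averaged from ≥2 independent days ±SEM.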

Ptch1 transcription = assay: Sufu−/− mouse embryonic fibroblasts qRT-PCR; type: cell-based; details: for inhibition at 10 µM: Mus musculus, Fibroblast, read-out: Sufu Null (Ptc) % Inh., 10 μM
From the text: as §1, §2, §3, §4, §5, §6

zebrafish embryos = assay: Zebrafish embryo phenotypic assay (ZF); type: in vivo; details: wild-type embryonic zebrafish, dosed 5 hpf
Method: All zebrafish experiments were approved by Vanderbilt University Institutional Animal Care and Use Committee. Wild-type zebrafish of AB strain were maintained using standard protocols. Chemical screen for small molecules was performed as previously described. Briefly, pairs of zebrafish were mated, and fertilized eggs were arrayed in 96-well microtiter plates (5 embryos/well) containing 250 μl E3 water. At ˜4-hpf, small molecule library from Vanderbilt High Throughput Screening Facility was added to each well to the final concentration of 5 μM. Embryos were incubated at 28.5° C. until 24 and 48-hpf, when they were examined for gross morphologic changes indicative of disruption in embryonic patterning. A total of ˜30,000 compounds were screened.
ZF refers to wild-type embryonic zebrafish phenotypic assay involving dosing n=˜10 embryos in E3 egg water with compound from either a stock of 1 mM or 10 mM in DMSO at 5 hours post-fertilization and observing at 24, 48, and 72 hours post-fertilization.

Gli1 mRNA = assay: Hh % Inh.: SAG-induced Gli1 expression in C3H10T½ cells (qPCR); type: cell-based; details: Mus musculus, C3H 10T1/2, SAG-induced (100 nM), 24 hours; for inhibition at 1 µM: 1 pM [sic], read-out: C3H10T1/2 qPCR, Gh1 mRNA % Inh., 1 pM; for inhibition at 10 µM: 10 pM [sic], read-out: C3H10T1/2 qPCR, Gh1 mRNA % Inh., 10 pM; for EC50: read-out: C3H10T1/2 qPCR, Gh1 mRNA EC50
Method: Compounds are dosed from 10 mM DMSO stock solutions, and mRNA is isolated after 24 hours of compound treatment. mRNA is reverse transcribed to produce cDNA which is quantified by quantitative polymerase chain reaction (qPCR) in triplicate and levels are normalized to GAPDH levels. Data is presented as percent inhibition compared to positive control (SAG).

[3] = molecular target: T1, Smo cyclopamine (Cyc) binding site (Homo sapiens, UniProt Q99835); assay: BODIPY-cyclopamine competition in HEK-293T cells overexpressing Smo
T1 construct: expressed in transfected cells; host or cells: HEK-293T
Method: Thus, HEK-293T cells overexpressing Smo were concurrently treated with 5 nM BODIPY-Cyc and molecules of interest.

PKA activation = assay: Immunostaining of autophosphorylated PKA catalytic subunit in NIH3T3 cells; type: cell-based; details: SAG-stimulated NIH3T3 cells, Egm 5 μM, Rolipram 10 μM
Method: NIH3T3 cells were plated on Poly-D-Lysine-coated glass coverslips and were cultured at 37° C., 5% CO2 in DMEM medium containing 10% fetal bovine serum until reaching 75% confluency. For one set of experiments, cells were then transfected with VSV-tagged PDE4D3 plasmid (gift from Miles Houslay, University of Glasgow, Scotland, UK) using Fugene6 transfection reagent (Roche, Indianapolis, Ind.) per manufacturer's protocol. Afterward, cell medium was replaced with DMEM/0.5% FBS containing either 5 μM eggmanone or DMSO and incubated overnight at 37° C., 5% CO2. Cells were fixed in 4% PFA at room temperature for 10 minutes prior to permeabilization, blocking, and staining with primary antibodies against Arl13b (gift of Tamary Caspary, Emory University, Atlanta, Ga.) and VSV (AbCam, Cambridge, Mass.). Fluorescent immunocytochemistry was performed using species-specific, secondary antibodies (Jackson Immunoresearch, West Grove, Pa.). For additional immunocytochemistry experiment, cells were treated with 20 nM SAG in the presence or absence of 5 uM Eggmanone. After overnight incubation, cells were washed with PBS, fixed for 10 minutes in 4% PFA, permeabilized 20 minutes at −20C with cold methanol, blocked with PBS/1% BSA, and incubated with primary antibodies to phospho-PKA catalytic domain Thr197 (Cell Signaling, Danvers, Mass.) and then to Arl13b. An additional overnight blocking step using unconjugated rabbit IgG was required between primary antibody incubations since both antibodies were produced in rabbit. Fluorescent conjugated secondary antibodies were used for visualization. Data analysis was performed in part through the use of the VUMC Cell Imaging Shared Resource.
Using ImageJ software (National Institutes of Health, developed by W. Rasband), a region of interest was created using the magic wand tool on Arl13b channel and transposed to the Gli2 channel, and integrated density was measured and reported as arbitrary units (a.u.). For phospho-PKA, using ImageJ, a line selection tool was used to select a line projected through the length of the primary cilia and an equal length beyond. The intensity values were potted and the cumulative florescence (area under the curve) was calculated for three cilia, blindly, for each treatment. These values for cilia and pericilia domain were analyzed by a two tailed students t-test. For correlation analysis, correlation coefficient for intensity of gamma-tubulin and phosphor-PKA were calculated and compared among treatments with students t-test.

[4] = Calculated as pEC50 - cLogP, Molinspiration Cheminformatics
[5] = 20 nM SAG, mean ± standard error of the mean, read-out: TM3-Gli-Luc EC50
[6] = TM3-Gli-Luc reporter line stimulated with 20 nM SAG, mean ± SEM, Table 14, read-out: TM3-Gli-Luc EC50
[7] = Table 9A, read-out: TM3 G8 Luciferase EC 50

T1 sequence (Q99835 28-787): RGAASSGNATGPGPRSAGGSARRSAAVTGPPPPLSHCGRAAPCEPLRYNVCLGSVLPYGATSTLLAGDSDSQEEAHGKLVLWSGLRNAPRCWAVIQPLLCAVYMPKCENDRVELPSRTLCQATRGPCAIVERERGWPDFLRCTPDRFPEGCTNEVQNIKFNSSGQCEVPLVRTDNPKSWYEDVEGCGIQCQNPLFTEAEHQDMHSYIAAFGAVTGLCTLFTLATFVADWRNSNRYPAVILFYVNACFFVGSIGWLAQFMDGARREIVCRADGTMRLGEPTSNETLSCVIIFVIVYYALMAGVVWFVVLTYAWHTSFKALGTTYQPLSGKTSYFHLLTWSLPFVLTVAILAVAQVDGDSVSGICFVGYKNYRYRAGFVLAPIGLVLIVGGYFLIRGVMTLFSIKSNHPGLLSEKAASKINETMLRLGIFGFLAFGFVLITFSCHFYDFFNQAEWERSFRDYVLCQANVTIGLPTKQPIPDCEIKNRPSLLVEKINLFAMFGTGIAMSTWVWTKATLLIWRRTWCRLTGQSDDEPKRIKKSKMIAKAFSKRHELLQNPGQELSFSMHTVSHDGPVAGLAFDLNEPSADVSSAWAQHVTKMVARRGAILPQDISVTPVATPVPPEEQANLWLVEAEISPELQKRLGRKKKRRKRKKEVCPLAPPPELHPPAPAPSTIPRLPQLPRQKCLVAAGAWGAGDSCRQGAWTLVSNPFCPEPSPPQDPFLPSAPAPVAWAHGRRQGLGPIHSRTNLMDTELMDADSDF

## O=C(CSc1nc2sc3c(c2c(=O)n1C1CC1)CCCC3)c1cccs1 [Formula 9b]
Gli1 transcription; Gli1 and Ptch1
  Transcriptional inhibition in the Sufu−/− cell line, in words: general ability to inhibit transcriptional activity
[1]; [4]
  LipE: 1.40
[1]; pEC50 - cLogP, Table 14
  LipE: 1.40
[2]; [5]
  EC50: 1890 ± 750 nM
[2]; [6]
  EC50: 1890 ± 750 nM

## O=C(CSc1nc2sc3c(c2c(=O)n1C1CC1)CCCC3)c1ccccc1 [JEH-1-163-1]
Ptch1 transcription
  inhibition at 10 µM: 41.9%
[2]; [7]
  EC50: 1960 nM
Zebrafish embryos
  ZF Phenotype EC100: 0.81 µM

## C=C(C)Cn1c(SCC(=O)N2CCCCC2)nc2sc3c(c2c1=O)CCCC3 [JEH-3-048-3]
Ptch1 transcription
  inhibition at 10 µM: -13.7%
Gli1 mRNA
  inhibition at 1 µM: 33.8%
  inhibition at 10 µM: 98.6%
[2]; [7]
  EC50: 6310 nM

## C=C(C)Cn1c(SCC(=O)N2CCCCC2C)nc2sc3c(c2c1=O)CCCC3 (stereo not drawn) [JEH-3-069-2]
Ptch1 transcription
  inhibition at 10 µM: 77.6%
Gli1 mRNA
  inhibition at 1 µM: 38.6%
  inhibition at 10 µM: 97.6%
  EC50: 2740 nM
[2]; [7]
  EC50: 2500 nM

## C=C(C)Cn1c(SCC(=O)c2cccn2C)nc2sc3c(c2c1=O)CCCC3 [JEH-3-077]
Ptch1 transcription
  inhibition at 10 µM: 52.1%
Gli1 mRNA
  inhibition at 1 µM: 47.1%
  inhibition at 10 µM: 89.1%
  EC50: 1130 nM

## CCn1c(SCC(=O)c2cccs2)nc2sc3c(c2c1=O)CCCC3 [JEH-3-087-1]
Ptch1 transcription
  inhibition at 10 µM: 21.6%
Gli1 mRNA
  inhibition at 1 µM: 39.5%
  inhibition at 10 µM: 96.1%
  EC50: 1370 nM
[2]; [7]
  EC50: 12000 nM

## CCCn1c(SCC(=O)c2cccs2)nc2sc3c(c2c1=O)CCCC3 [JEH-3-087-2]
Ptch1 transcription
  inhibition at 10 µM: 12.1%
Gli1 mRNA
  inhibition at 1 µM: 64.2%
  inhibition at 10 µM: 101%
  EC50: 789 nM
[2]; [7]
  EC50: 1580 nM

## CC1=C2C[C@H]3[C@@H](CC=C4CC(=O)CC[C@@]43C)[C@@H]2CC[C@]12O[C@@H]1C[C@H](C)CN(CCNC(=O)CCCCCNC(=O)CCc3ccccc3)[C@H]1[C@H]2C [KAAD-Cyc, KAAD-cyclopamine, reference compound]
[3]
  Displacement of BODIPY-cyclopamine (5 nM) from Smo: completely displaced BODIPY-Cyc

## Cc1c(C(=O)Nc2ccc(N3C[C@@H](C)O[C@@H](C)C3)nc2)cccc1-c1ccc(OC(F)(F)F)cc1 [Sonidegib, reference compound]
Gli1 transcription; 0.1 μM
  inhibition of Gli1 transcription: failed to inhibit transcription
Ptch1 transcription; 0.1 μM
  inhibition of Ptch1 transcription: failed to inhibit transcription
[1]; [4]
  LipE: 3.02
[1]; pEC50 - cLogP, Table 14
  LipE: 3.02
[2]; 20 nM SAG
  Hh inhibitory activity / potency in words: displayed expected potency
[2]; 20 nM SAG, listed as 2
  Hh inhibitory activity / potency in words: low-nanomolar
[2]; [5]
  EC50: 1.2 ± 0.2 nM
[2]; [6]
  EC50: 1.2 ± 0.2 nM

## CCCC(=O)Nc1ncnc2c1ncn2[C@@H]1O[C@@H]2COP(=O)(O)O[C@H]2[C@H]1OC(=O)CCC [dibutyril cAMP (DBA), dibutyril cAMP, reference compound]
PKA activation
  PKA activation (phospho-PKA-C staining), spatial distribution: induce spatially localized PKA activation in the basal body
PKA activation; listed as dibutyril cAMP
  PKA activation (phospho-PKA-C staining), spatial distribution: more diffuse increase in phospho-PKA staining
